Here are results for 11 compounds from ChEMBL document CHEMBL1201862, “PubChem BioAssay data set” (2004).

Holding throughout (test): NCI anticancer screen, dose series, 48 h
Experiment [1] concerns RXF 393.
Experiment [2] relates to SNB-75.
Experiment [3] concerns HT-29.
Experiment [4] deals with HCT-116.
In experiment [5] the test system is DLD-1.
For experiment [6], the system named is A549.
Experiment [7] relates to SF-268.
Experiment [8] relates to EKVX.
The test system of experiment [9] is OVCAR-3.
Experiment [10] concerns UO-31.
The test system of experiment [11] is M14.
Experiment [12] has as its system ACHN.
The subject of experiment [13] is HCC 2998.
The subject of experiment [14] is UACC-62.
The subject of experiment [15] is HOP-62.
Experiment [16] has as its system COLO 205.
The subject of experiment [17] is SK-MEL-5.
Experiment [18] concerns HOP-92.
Experiment [19] deals with CCRF-CEM.
Experiment [20] relates to NCI/ADR-RES.

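Cells were grown in 96-well plates and exposed to each compound for 48 hours at five concentrations; endpoints were interpolated linearly between bracketing concentrations, or set to the highest concentration if not reached. The concentration for 50% growth inhibition is given as GI50.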 Active and inactive are the calls of the source. No stated cut-off is given here; in the data, active = GI50 up to about 1.1 µM and inactive = higher. A value given as a limit tells only on which side of the number the result lay.

As for `O=C1NC2(CCCCC2)C2CCCCCC12` (stereo not drawn), the GI50 in experiment [1], in [2], in experiment [3], in experiment [4], in experiment [5] and in [6] was > 100 µM (inactive) each time. Further, the GI50 in experiment [7], in [8], in experiment [9], in experiment [10], in experiment [11] and in experiment [12] was > 100 µM (inactive) in each case. Moreover, the GI50 in [13], in experiment [14] and in experiment [15] was > 100 µM (inactive) throughout.

Regarding `Cn1c2c(c3ccccc31)CCN(CCCCN1CCCCC1)C2=O`, the GI50 is > 100 µM (inactive) in experiment [1]; > 100 µM (inactive) in experiment [16]; 61 µM (inactive) in experiment [3]; 84.5 µM (inactive) in [4]; > 100 µM (inactive) in [17]; > 100 µM (inactive) in experiment [5]. For the same compound, the GI50 in [6] was > 100 µM (inactive); in experiment [18] it was > 100 µM (inactive); in experiment [7], 51.1 µM (inactive); in experiment [8], > 100 µM (inactive); in experiment [9] it was > 100 µM (inactive); in [10] it was > 100 µM (inactive). Moreover, the GI50 was > 100 µM (inactive) in experiment [19]; 99.1 µM (inactive) in experiment [11]; > 100 µM (inactive) in [12]; 28.3 µM (inactive) in [14]; > 100 µM (inactive) in [15].

In the case of `CC1(C)C2CCC3(OCCO3)C1C(O)C2` (stereo not drawn), the GI50 in experiment [1], in experiment [2], in experiment [3], in experiment [4], in experiment [17] and in [5] was > 100 µM (inactive) throughout. Besides, the GI50 in experiment [6], in [18], in experiment [7], in experiment [8], in experiment [9] and in experiment [10] was > 100 µM (inactive) each time. Further, the GI50 in experiment [19], in [11], in [12], in [13], in experiment [14] and in experiment [15] was > 100 µM (inactive) in each case.

For the compound `CN(C)CCSc1nccc(-c2ccc(-c3ccnc(SCCN(C)C)n3)s2)n1`, the GI50 in experiment [1] was 6.14 µM (inactive); in experiment [2] it was 14.4 µM (inactive); in [16] it was 9.4 µM (inactive); in experiment [3] it was 2.57 µM (inactive); in experiment [4], 3.33 µM (inactive); in experiment [17], 15.9 µM (inactive). The GI50 in experiment [5] was 4.81 µM (inactive); in [6], 12.4 µM (inactive); in [20], 4.91 µM (inactive); in experiment [18], 10.9 µM (inactive); in [7], 8.17 µM (inactive); in [8], 18.2 µM (inactive). For the same compound, the GI50 in experiment [9] was 13.4 µM (inactive); in experiment [10], 4.94 µM (inactive); in experiment [19], 1.43 µM (inactive); in experiment [13], 6.08 µM (inactive); in experiment [14], 15.3 µM (inactive); in experiment [15], 15.9 µM (inactive).

Regarding `CCOC(=O)CC(NC(=O)c1ccc(/N=N/N(C)C)cc1)C(=O)OCC` (stereo not drawn), the GI50 is 91.8 µM (inactive) in experiment [2]; > 100 µM (inactive) in [16]; > 100 µM (inactive) in experiment [3]; > 100 µM (inactive) in experiment [4]; > 100 µM (inactive) in [17]; > 100 µM (inactive) in experiment [5]. The GI50 in experiment [6], in experiment [7], in experiment [8], in experiment [9], in [10] and in experiment [19] was > 100 µM (inactive) throughout. For the same compound, the GI50 in experiment [11] was > 100 µM (inactive); in [12] it was > 100 µM (inactive); in [13], > 100 µM (inactive); in [14], 63.4 µM (inactive); in experiment [15], > 100 µM (inactive).

Take `Cc1cc2c(C(C)C)c(O)c(O)c(/C=N/c3ccccc3)c2c(O)c1-c1c(C)cc2c(C(C)C)c(O)c(O)c(/C=N/c3ccccc3)c2c1O`: the GI50 in [1] is > 100 µM (inactive); in experiment [2] it was 67.8 µM (inactive); in experiment [16], > 100 µM (inactive); in experiment [3], > 100 µM (inactive); in experiment [4], > 100 µM (inactive); in experiment [5], > 100 µM (inactive). The GI50 in experiment [6], in experiment [18], in experiment [7], in experiment [8], in [9] and in experiment [10] was > 100 µM (inactive) each time. Besides, the GI50 in experiment [19], in experiment [11], in experiment [12], in [13], in experiment [14] and in [15] was > 100 µM (inactive) throughout.

`COC(=O)c1cccc(C(=O)OC)c1`: the GI50 in [1], in experiment [2], in [16], in experiment [3], in experiment [4] and in experiment [5] was > 100 µM (inactive) in each case. Also, the GI50 in [6], in experiment [18], in [7], in [19], in [11] and in [12] was > 100 µM (inactive) in each case. For the same compound, the GI50 in experiment [13] and in experiment [15] was > 100 µM (inactive) each time.

Regarding `CCOC(=O)NC(=O)c1cn(CCSCCOC(=O)NCCCCCCNC(=O)OCCSCCn2cc(C(=O)NC(=O)OCC)c(=O)[nH]c2=O)c(=O)[nH]c1=O`, the GI50 in experiment [1], in experiment [2], in experiment [16], in experiment [3], in experiment [4] and in experiment [17] was > 100 µM (inactive) each time. Besides, the GI50 in experiment [5], in [6], in experiment [18], in [8], in experiment [9] and in experiment [10] was > 100 µM (inactive) each time. In addition, the GI50 in [19], in [11], in experiment [12], in experiment [14] and in [15] was > 100 µM (inactive) each time.

For `CCOC1=C2N=C(Cc3ccc(F)cc3)NC2C(=O)c2ccccc21` (stereo not drawn), the GI50 in experiment [1] is 18.3 µM (inactive); in experiment [2], 15.7 µM (inactive); in experiment [16], 23.3 µM (inactive); in experiment [3], 21.1 µM (inactive); in [4], > 10 µM (inactive); in experiment [5] it was 27 µM (inactive). The GI50 in experiment [18] was 10.7 µM (inactive); in experiment [8], 23.2 µM (inactive); in experiment [9] it was 18.6 µM (inactive); in [10] it was 4.69 µM (inactive); in experiment [19], 8.26 µM (inactive); in experiment [11], 25.5 µM (inactive). Further, the GI50 in [12] was 14 µM (inactive); in experiment [13], 25.8 µM (inactive); in experiment [14], 22.1 µM (inactive); in [15], 58.9 µM (inactive).

As to `COc1nc(N)nc2nc[nH]c12`, the GI50 in experiment [1] is 313 µM (inactive); in experiment [2] it was 208 µM (inactive); in [16] it was 393 µM (inactive); in [3] it was 495 µM (inactive); in experiment [4] it was 463 µM (inactive); in experiment [17] it was > 500 µM (inactive). Also, the GI50 in experiment [5] was 385 µM (inactive); in experiment [6], > 500 µM (inactive); in experiment [20], > 500 µM (inactive); in experiment [18], 235 µM (inactive); in [7], 435 µM (inactive); in [8], > 387 µM (inactive). Moreover, the GI50 was 497 µM (inactive) in experiment [9]; 239 µM (inactive) in experiment [10]; 331 µM (inactive) in [19]; 478 µM (inactive) in experiment [11]; 328 µM (inactive) in experiment [12]; > 500 µM (inactive) in experiment [13]. Moreover, the GI50 in experiment [14] is 160 µM (inactive); in experiment [15] it was 172 µM (inactive).

With `NC1(C(=O)O)CCc2ccc(N(CCCl)CCCl)cc2C1` (stereo not drawn), the GI50 in [1] was > 100 µM (inactive); in experiment [2], 98.2 µM (inactive); in experiment [16] it was > 100 µM (inactive); in experiment [3], > 100 µM (inactive); in experiment [4], 0.01 µM (active); in experiment [17], 57.3 µM (inactive). Further, the GI50 was > 100 µM (inactive) in experiment [5]; 61.7 µM (inactive) in experiment [6]; > 100 µM (inactive) in experiment [20]; > 100 µM (inactive) in [18]; 24.3 µM (inactive) in experiment [7]; > 100 µM (inactive) in [8]. Also, the GI50 was > 100 µM (inactive) in experiment [9]; > 100 µM (inactive) in experiment [10]; 5.32 µM (inactive) in experiment [19]; > 100 µM (inactive) in [13]; 22.5 µM (inactive) in experiment [14]; 22.4 µM (inactive) in [15].
